ChEMBL document CHEMBL5104091, “Pyridazine as a privileged structure: An updated review on anticancer activity of pyridazine containing bioactive molecules” (Eur J Med Chem, 2021)
Values after ≈ are worked out from the molar mass of the structure shown.

Columns and labels:
UACC-62 = experiment: Cytotoxicity against human UACC-62 cells assessed as cell growth inhibition measured after 48 hrs by SRB assay; assay type: functional
MCF7 [1] = experiment: Cytotoxicity against human MCF7 cells assessed as cell growth inhibition measured after 48 hrs by SRB assay; assay type: functional
A498 = experiment: Cytotoxicity against human A498 cells assessed as cell growth inhibition measured after 48 hrs by SRB assay; assay type: functional
SW-620 = experiment: Cytotoxicity against human SW-620 cells assessed as cell growth inhibition measured after 48 hrs by SRB assay; assay type: functional
PC-3 [2] = experiment: Cytotoxicity against human PC-3 cells assessed as cell growth inhibition measured after 48 hrs by SRB assay; assay type: functional
MDA-MB-435 = experiment: Cytotoxicity against human MDA-MB-435 cells assessed as cell growth inhibition measured after 48 hrs by SRB assay; assay type: functional
SF-295 = experiment: Cytotoxicity against human SF-295 cells assessed as cell growth inhibition measured after 48 hrs by SRB assay; assay type: functional
KM12 = experiment: Cytotoxicity against human KM12 cells assessed as cell growth inhibition measured after 48 hrs by SRB assay; assay type: functional
SK-MEL-5 = experiment: Cytotoxicity against human SK-MEL-5 cells assessed as cell growth inhibition measured after 48 hrs by SRB assay; assay type: functional
SR = experiment: Cytotoxicity against human SR cells assessed as cell growth inhibition measured after 48 hrs by SRB assay; assay type: functional
OVCAR-3 = experiment: Cytotoxicity against human OVCAR-3 cells assessed as cell growth inhibition measured after 48 hrs by SRB assay; assay type: functional
MDA-MB-468 = experiment: Cytotoxicity against human MDA-MB-468 cells assessed as cell growth inhibition measured after 48 hrs by SRB assay; assay type: functional
HCT-15 = experiment: Cytotoxicity against human HCT-15 cells assessed as cell growth inhibition measured after 48 hrs by SRB assay; assay type: functional
A-375 = experiment: Cytotoxicity against human A-375 cells assessed as cell growth inhibition; assay type: functional, cell-based
COLO 205 = experiment: Cytotoxicity against human COLO 205 cells assessed as cell growth inhibition; assay type: functional, cell-based
[3] = target: Epidermal growth factor receptor (Homo sapiens, UniProt P00533); experiment: Inhibition of EGFR (unknown origin)
Sequence of Epidermal growth factor receptor (P00533 whole entry): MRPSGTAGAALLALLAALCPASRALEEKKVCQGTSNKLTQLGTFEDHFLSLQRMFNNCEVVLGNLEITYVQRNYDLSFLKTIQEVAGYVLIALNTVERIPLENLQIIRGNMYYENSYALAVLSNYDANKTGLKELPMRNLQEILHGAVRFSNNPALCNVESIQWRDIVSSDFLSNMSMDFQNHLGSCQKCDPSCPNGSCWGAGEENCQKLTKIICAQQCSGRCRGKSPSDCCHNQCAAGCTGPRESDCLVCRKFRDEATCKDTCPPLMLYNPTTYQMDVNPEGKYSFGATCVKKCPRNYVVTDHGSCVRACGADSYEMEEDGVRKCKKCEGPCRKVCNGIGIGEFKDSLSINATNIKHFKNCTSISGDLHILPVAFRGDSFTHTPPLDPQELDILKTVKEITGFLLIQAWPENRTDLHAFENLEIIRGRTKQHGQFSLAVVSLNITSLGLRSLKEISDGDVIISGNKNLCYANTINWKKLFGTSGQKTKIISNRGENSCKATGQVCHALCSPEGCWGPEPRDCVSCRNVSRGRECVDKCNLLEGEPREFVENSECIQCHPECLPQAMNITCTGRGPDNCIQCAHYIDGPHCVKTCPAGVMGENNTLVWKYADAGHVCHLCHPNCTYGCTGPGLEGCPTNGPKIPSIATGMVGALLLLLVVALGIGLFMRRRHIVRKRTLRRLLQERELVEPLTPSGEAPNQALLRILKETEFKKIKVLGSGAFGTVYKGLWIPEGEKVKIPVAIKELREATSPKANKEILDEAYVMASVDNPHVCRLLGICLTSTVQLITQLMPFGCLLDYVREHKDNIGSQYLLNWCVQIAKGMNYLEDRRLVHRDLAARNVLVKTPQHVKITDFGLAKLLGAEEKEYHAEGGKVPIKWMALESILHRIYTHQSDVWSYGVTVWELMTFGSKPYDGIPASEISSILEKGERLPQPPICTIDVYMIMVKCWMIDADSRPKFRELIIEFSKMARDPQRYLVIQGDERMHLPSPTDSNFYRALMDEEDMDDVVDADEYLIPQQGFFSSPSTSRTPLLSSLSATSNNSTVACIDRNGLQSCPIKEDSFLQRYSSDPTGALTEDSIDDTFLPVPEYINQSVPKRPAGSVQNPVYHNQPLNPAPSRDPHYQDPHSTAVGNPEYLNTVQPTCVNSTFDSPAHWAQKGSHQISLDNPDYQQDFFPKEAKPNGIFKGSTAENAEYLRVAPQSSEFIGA

IMR-32 = experiment: Cytotoxicity against human IMR-32 cells assessed as cell growth inhibition; assay type: functional, cell-based
TMD8 = experiment: Cytotoxicity against human TMD8 cells assessed as cell growth inhibition measured after 72 hrs by WST-1 assay; assay type: functional, cell-based; settings: TMD8, 72 h
[4] = target: Tyrosine-protein kinase BTK (Homo sapiens, UniProt Q06187); experiment: Inhibition of BTK (unknown origin) incubated for 30 mins in presence of ATP by fluorescence based analysis
Sequence of Tyrosine-protein kinase BTK (Q06187 whole entry): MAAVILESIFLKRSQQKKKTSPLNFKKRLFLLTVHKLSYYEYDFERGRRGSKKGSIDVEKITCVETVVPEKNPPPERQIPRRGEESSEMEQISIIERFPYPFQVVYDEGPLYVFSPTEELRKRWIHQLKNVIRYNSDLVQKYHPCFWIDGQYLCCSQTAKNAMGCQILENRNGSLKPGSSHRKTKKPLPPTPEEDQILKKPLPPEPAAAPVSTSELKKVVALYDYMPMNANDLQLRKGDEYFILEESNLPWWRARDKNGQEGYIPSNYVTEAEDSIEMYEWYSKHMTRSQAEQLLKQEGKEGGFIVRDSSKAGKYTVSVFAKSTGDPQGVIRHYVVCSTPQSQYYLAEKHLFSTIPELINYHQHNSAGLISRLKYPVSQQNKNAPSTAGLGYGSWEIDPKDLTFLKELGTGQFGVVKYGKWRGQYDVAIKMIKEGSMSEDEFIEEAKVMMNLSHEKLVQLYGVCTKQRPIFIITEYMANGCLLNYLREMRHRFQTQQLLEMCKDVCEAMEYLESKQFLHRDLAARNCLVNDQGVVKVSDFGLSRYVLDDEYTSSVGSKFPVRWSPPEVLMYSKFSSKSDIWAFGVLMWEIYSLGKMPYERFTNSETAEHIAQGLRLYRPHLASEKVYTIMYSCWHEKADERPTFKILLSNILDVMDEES

MDA-MB-231 [5] = experiment: Antiproliferative activity against human MDA-MB-231 cells assessed as cell growth inhibition measured after 48 hrs by WST-1 assay; assay type: functional, cell-based; settings: MDA-MB-231, 48 h
MDA-MB-231 [6] = experiment: Potency index, ratio of 5-Fu IC50 to compound IC50 for antiproliferative activity against human MDA-MB-231 cells assessed as cell growth inhibition measured after 48 hrs by WST-1 assay; assay type: functional
HCT-116 = experiment: Cytotoxicity against human HCT-116 cells assessed as cell growth inhibition; assay type: functional, cell-based
MCF7 [7] = experiment: Antiproliferative activity against human MCF7 cells assessed as cell growth inhibition measured after 48 hrs by MTT assay; assay type: functional, cell-based; settings: MCF7, 48 h
HepG2 = experiment: Antiproliferative activity against human HepG2 cells assessed as inhibition of cell growth measured after 48 hrs by MTT assay; assay type: functional, cell-based; settings: HepG2, 48 h
PC-3 [8] = experiment: Antiproliferative activity against human PC3 cells assessed as cell growth inhibition; assay type: functional
K562 = experiment: Antiproliferative activity against human K562 cells assessed as cell growth inhibition; assay type: functional
[9] = target: Hepatocyte growth factor receptor (Homo sapiens, UniProt P08581); experiment: Inhibition of c-Met (unknown origin) incubated for 20 to 30 mins in presence of [33P]-ATP by scintillation counter analysis
Sequence of Hepatocyte growth factor receptor (P08581 whole entry): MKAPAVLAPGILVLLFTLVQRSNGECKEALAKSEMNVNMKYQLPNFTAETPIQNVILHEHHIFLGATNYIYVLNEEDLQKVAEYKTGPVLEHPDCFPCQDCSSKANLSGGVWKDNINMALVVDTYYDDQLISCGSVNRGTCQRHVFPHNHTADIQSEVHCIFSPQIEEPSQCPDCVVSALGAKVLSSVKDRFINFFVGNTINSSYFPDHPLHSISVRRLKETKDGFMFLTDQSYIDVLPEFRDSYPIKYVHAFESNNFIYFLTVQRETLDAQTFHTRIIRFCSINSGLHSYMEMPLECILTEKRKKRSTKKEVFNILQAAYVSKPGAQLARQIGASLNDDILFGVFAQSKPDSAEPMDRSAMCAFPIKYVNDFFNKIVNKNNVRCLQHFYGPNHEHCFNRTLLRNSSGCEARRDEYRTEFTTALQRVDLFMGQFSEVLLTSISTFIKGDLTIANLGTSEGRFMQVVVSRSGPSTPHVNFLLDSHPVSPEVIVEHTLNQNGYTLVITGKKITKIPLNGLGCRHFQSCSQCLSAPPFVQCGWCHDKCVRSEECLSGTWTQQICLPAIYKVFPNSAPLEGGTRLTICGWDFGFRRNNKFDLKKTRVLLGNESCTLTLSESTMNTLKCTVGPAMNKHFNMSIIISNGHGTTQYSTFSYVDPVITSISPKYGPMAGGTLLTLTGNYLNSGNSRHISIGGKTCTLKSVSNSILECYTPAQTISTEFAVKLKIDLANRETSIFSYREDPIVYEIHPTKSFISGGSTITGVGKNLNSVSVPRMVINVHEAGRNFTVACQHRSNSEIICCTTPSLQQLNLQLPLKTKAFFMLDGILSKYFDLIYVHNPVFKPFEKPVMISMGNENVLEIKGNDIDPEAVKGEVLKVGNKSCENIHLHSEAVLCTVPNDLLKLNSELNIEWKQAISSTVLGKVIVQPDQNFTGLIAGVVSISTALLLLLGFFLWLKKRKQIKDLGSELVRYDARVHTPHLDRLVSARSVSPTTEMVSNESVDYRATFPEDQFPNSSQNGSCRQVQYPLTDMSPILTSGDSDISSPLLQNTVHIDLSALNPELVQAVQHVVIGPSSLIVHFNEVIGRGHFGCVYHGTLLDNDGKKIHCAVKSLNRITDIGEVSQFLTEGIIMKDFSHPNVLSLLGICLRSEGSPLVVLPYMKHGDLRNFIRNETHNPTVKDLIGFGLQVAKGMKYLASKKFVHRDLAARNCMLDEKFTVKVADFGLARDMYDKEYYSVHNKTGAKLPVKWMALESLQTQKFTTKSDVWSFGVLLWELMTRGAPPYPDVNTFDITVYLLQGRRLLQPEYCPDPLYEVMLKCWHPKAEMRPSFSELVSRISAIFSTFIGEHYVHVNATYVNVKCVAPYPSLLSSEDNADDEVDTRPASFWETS

MCF7 [10] = experiment: Antiproliferative activity against human MCF7 cells assessed as cell growth inhibition; assay type: functional, cell-based
MDA-MB-231 [11] = experiment: Antiproliferative activity against human MDA-MB-231 cells assessed as cell growth inhibition; assay type: functional, cell-based
HaCaT = experiment: Antiproliferative activity against human HaCaT cells assessed as cell growth inhibition; assay type: functional, cell-based
CCRF-SB = experiment: Cytotoxicity against human CCRF-SB cells assessed as cell growth inhibition measured after 48 hrs by MTT assay; assay type: functional, cell-based
MCF7 [12] = experiment: Cytotoxicity against human MCF7 cells assessed as cell growth inhibition measured after 48 hrs by MTT assay; assay type: functional, cell-based; settings: MCF7, 48 h
NALM-6 = experiment: Cytotoxicity against human NALM-6 cells assessed as cell growth inhibition measured after 48 hrs by MTT assay; assay type: functional, cell-based; settings: NALM-6, 48 h
[13] = target: T1, Poly [ADP-ribose] polymerase 1 (Homo sapiens, UniProt P09874); experiment: Inhibition of PARP1 (unknown origin) by colorimetric assay
T1 sequence (P09874 whole entry): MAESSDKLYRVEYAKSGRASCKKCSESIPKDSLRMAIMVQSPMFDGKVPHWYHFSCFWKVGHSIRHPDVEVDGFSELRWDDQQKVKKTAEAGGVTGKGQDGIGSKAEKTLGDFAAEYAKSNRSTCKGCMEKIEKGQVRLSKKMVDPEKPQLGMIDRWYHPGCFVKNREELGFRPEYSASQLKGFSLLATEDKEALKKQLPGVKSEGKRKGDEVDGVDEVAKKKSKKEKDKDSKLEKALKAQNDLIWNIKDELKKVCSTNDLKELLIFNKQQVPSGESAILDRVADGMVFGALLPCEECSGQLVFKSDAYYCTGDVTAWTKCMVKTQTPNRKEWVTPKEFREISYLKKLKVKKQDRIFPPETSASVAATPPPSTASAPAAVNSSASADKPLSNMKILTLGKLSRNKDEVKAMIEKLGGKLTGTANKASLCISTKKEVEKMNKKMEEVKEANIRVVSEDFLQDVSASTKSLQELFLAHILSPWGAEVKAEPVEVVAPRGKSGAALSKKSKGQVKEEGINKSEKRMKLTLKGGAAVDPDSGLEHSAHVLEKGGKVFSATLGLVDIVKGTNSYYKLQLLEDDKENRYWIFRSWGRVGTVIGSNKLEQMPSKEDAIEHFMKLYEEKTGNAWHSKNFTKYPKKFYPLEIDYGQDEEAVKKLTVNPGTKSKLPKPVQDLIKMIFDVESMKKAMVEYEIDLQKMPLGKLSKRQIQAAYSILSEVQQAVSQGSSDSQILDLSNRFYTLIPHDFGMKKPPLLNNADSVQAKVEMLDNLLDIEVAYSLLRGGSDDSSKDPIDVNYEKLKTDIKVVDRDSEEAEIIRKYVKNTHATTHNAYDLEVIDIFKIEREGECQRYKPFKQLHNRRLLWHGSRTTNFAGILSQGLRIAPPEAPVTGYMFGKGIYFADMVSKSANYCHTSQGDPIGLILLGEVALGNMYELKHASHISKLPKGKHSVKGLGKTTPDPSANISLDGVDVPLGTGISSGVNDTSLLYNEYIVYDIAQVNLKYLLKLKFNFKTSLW

[14] = target: Protein deacetylase HDAC6 (Homo sapiens, UniProt Q9UBN7); experiment: Inhibition of HDAC6 (unknown origin) measured after 15 mins by fluorescence based assay
SH-SY5Y = experiment: Anticancer activity against human SH-SY5Y cells assessed as cell growth inhibition measured upto 72 hrs by MTS assay; assay type: functional, cell-based
Hep 3B2 = experiment: Anticancer activity against human Hep3B cells assessed as cell growth inhibition measured upto 72 hrs by MTS assay; assay type: functional, cell-based
[15] = target: T1, Poly [ADP-ribose] polymerase 1; experiment: Inhibition of PARP1 (unknown origin) incubated for 30 mins by ELISA assay
[16] = Cytotoxicity against human CEM cells assessed as cell growth inhibition measured after 48 to 72 hrs by hoechst and PI staining based analysis; assay type: toxicity; settings: CCRF-CEM cells, time 48-72 hrs
MDA-MB-231 [17] = experiment: Cytotoxicity against human MDA-MB-231 cells assessed as cell growth inhibition measured after 48 to 72 hrs by hoechst and PI staining based analysis; assay type: functional; settings: time 48-72 hrs
MDA-MB-436 = experiment: Antiproliferative activity against human MDA-MB-436 cells assessed as cell growth inhibition measured after 72 hrs by MTT assay; assay type: functional, cell-based; settings: MDA-MB-436, 72 h
HUVEC = experiment: Antiproliferative activity against VEGF-stimulated human HUVEC cells assessed as cell growth inhibition at 10 uM incubated for 72 hrs by resazurin dye based AlamarBlue assay relative to control; assay type: functional
A549 = experiment: Antiproliferative activity against human A549 cells assessed as cell growth inhibition; assay type: functional, cell-based

With CCOC(=O)c1cc(C(=O)c2cc(OC)c(OC)c(OC)c2)n2nc(C)ccc12 the GI50 (UACC-62) was under 100 nM, the GI50 (MCF7 [1]) was 48.1 nM and the GI50 (A498) was under 100 nM. For the same compound, the GI50 (SW-620) was under 100 nM, the GI50 (PC-3 [2]) was under 100 nM and the GI50 (MDA-MB-435) was 25.6 nM. For the same compound, the GI50 (SF-295) was under 100 nM, the GI50 (KM12) was under 100 nM and the GI50 (SK-MEL-5) was under 100 nM. It also gave a GI50 (SR) of 48.1 nM, a GI50 (OVCAR-3) of under 100 nM and a GI50 (MDA-MB-468) of under 100 nM. It also gave a GI50 (HCT-15) of under 100 nM.

O=C(NC(Cc1c[nH]c2ccccc12)C1C(=O)N=C2C=CC=NN21)c1ccccc1 (centres undefined) showed an IC50 (A-375) of 14 nM and an IC50 (COLO 205) of 21 nM.

In the case of CN(C)c1ccc(/C=N/NC(=O)Cn2nc(Cc3ccc(Cl)cc3)c3ccccc3c2=O)cc1, the IC50 [3] is reported as 0.45 nM.

With Cc1n[nH]c(=O)c2c1c1cc(F)ccc1n2Cc1cn(C2CCCCC2)nn1 the IC50 (IMR-32) was 40 nM.

Compound CC(C)Nc1ccc2nnc(-c3cc(-c4cnn(C5CCN(CCO)CC5)c4)cnc3N)n2n1 has an IC50 (TMD8) of 800 nM and an IC50 [4] of 33 nM.

In the case of O=C1Nc2ccc(Cl)cc2/C1=N/Nc1nnc(-c2ccc(Cl)cc2)c2ccccc12, the IC50 (MDA-MB-231 [5]) is reported as 12000 nM and the “Ratio IC50” value (MDA-MB-231 [6]) is reported as 2.4.

N=C(N)NS(=O)(=O)c1ccc(Nc2ccc3nc4ccccc4c(=O)n3n2)cc1 showed an IC50 (HCT-116) of 11900 nM.

O=c1[nH]nc(-c2nnc(S)o2)c2ccccc12 gave an IC50 (MCF7 [7]) of 4900 nM and an IC50 (HepG2) of 4500 nM.

CC1(C)CC(=O)C2=C(C1)n1c(=O)c3ccccc3c(=O)n1C2 gave a GI50 (PC-3 [8]) of 5300 nM and a GI50 (K562) of 9400 nM.

For O=C(O)c1ccccc1Nc1ccc2nnc(-c3ccncc3)n2n1, the IC50 [9] was 107000 nM.

With COc1ccc(-c2nc(N3N=C(c4ccc(F)cc4)CCC3=O)n(C)c(=O)c2C#N)cc1 the IC50 (MCF7 [10]) was 3430 nM, the IC50 (MDA-MB-231 [11]) was 2560 nM and the IC50 (HaCaT) was over 50000 nM.

Compound Clc1ccc2nnc(-c3c[nH]c4ccccc34)n2n1 has an IC50 (CCRF-SB) of 1640 nM, an IC50 (MCF7 [12]) of 3550 nM and an IC50 (NALM-6) of 1140 nM.

Work on O=C(/C=C/c1ccc(CCCCCCc2n[nH]c(=O)c3cc(F)ccc23)cc1)NO yielded an IC50 [13] of 7 nM and an IC50 [14] of 57 nM.

Cc1cccc(/C=N/NC(=O)Cn2nc(N3CCN(c4ccc(Cl)cc4)CC3)ccc2=O)c1 gave an IC50 (SH-SY5Y) of 23200 nM and an IC50 (Hep 3B2) of 24300 nM.

For O=C(Nc1nc(-c2ccccc2)cs1)c1ccc(Cc2n[nH]c(=O)c3cccnc23)cc1, the IC50 [15] was 45.5 nM.

With O=c1c(Cl)c(Cl)cnn1-c1ccc(Cl)c(C(F)(F)F)c1 the CC50 [16] was 330 nM and the CC50 (MDA-MB-231 [17]) was 2630 nM.

Compound O=C(/C=C/c1cccc([N+](=O)[O-])c1)N1CCN(C(=O)c2cc(Cc3n[nH]c(=O)c4ccccc34)ccc2F)CC1 has an IC50 (MDA-MB-436) of 11600 nM.

With O=C(Nc1ccc(Oc2nnc(Cl)c3ccccc23)cc1)Nc1ccc(Cl)c(C(F)(F)F)c1 the inhibition at 10 µM (HUVEC) was 71.6%.

Work on CC(C)[Si](C#Cc1cc(-n2cc(Cn3nc(-c4ccccc4)cc(-c4ccccc4)c3=O)nn2)cc(C#C[Si](C(C)C)(C(C)C)C(C)C)n1)(C(C)C)C(C)C yielded an IC50 (MCF7 [10]) of 3.25 µg/mL and an IC50 (A549) of 5 µg/mL (≈ 6.52 µM).
